# Data published in patent publication US20070172444A1, “Hair tonics and method of screening the same” (Shiseido Company, Ltd., priority 2000, published 2007).
# Residues, ends and D or L forms follow the SMILES beside them. *: point of attachment. Cbz = O=C(OCc1ccccc1)*; CH2F = FC*
# Assays:
# human hair follicles = test: Human hair follicle organ culture (hair extension, retention of hair bulb morphology); format: cell-based; conditions: for extension of hair: 7 days
# Protocol: Three antibiotics of penicillin, streptomycin and fungizone were added to the Williams E medium (Gibco), and the medium to which 10 ng/ml hydrocortisone, 10 μg/ml insulin, 10 ng/ml sodium pentaselenate and 10 μg/ml transferrin were further added was made the insulin-containing medium, and the medium to which they were not added was made the basal medium, and were used in a human hair follicle organ culture.
# (§1) Using a microtome under a stereoscopic microscope, hair follicles in the growth phase were isolated from a human scalp. The isolated hair follicles were washed in the basal medium followed by the measurement of length, and then immersed in the insulin-containing medium (a 24-well microplate was used; 1 ml per well), and was cultured overnight at 37° C. in an atmospheric condition containing 5% CO2. After measuring the length again, hair follicles of which length extension was 0.25 mm or longer and of which morphology in the growth phase was retained were selected, and were divided in groups of 10 to 12 pieces so that the length extension may become equal. For each group, the medium was changed to one containing test substances, and the culturing was continued under the above gas phase condition.
# The extension of hair follicles was determined over time by inserting a micrometer into the eyepiece of an inverted microscope. Photographs of the whole hair follicles and hair bulbs were taken by a camera connected to the inverted microscope.
# On the second day of culturing, the medium was changed to one in which TGF-β2 was added to a final concentration of 50 ng/ml, and the culturing was continued for five days while observing the extension of hair follicles and morphological changes. […] Thus, it was estimated that TGF-β2 has an effect of promoting the regression phase.
# The method was performed in accordance with the human hair follicle organ culture method. On the second day of culturing, the medium was changed to one in which anti-TGF-β antibody (manufactured by Genzyme) having the effect of neutralizing TGF-β or the control mouse IgG were added to a final concentration of 20 μg/ml or 100 μg/ml, and culturing was continued for 4-7 days while observing the extension and morphological changes of hair follicles.
# The medium was changed to one in which fetuin (final concentration: 1, 10, 50 μM) or the control bovine serum albumin (final concentration: 50 μM) was added to the basal medium, and culturing was continued for a further 7 days while observing the extension and morphological changes of hair follicles.
# as §1, with “that” for “that the”
# The extension of hair follicles was determined with time by inserting a micrometer into the eyepiece of an inverted microscope. Photographs of the whole hair follicles and hair bulbs were taken by a camera connected to the inverted microscope.
# Carbobenzoxy-valyl-alanyl-β-methyl-aspar-1-yl-fluoromethane (z-VAD-fmk) is known to inhibit almost all caspases. […] The medium was changed to one in which z-VAD-fmk (final concentration: 1, 10, 100 μM) was dissolved in DMSO or the control DMSO was added to the basal medium, and culturing was continued for further 7 days while observing the extension and morphological changes of hair follicles. […]
# TGF-β2 = molecular target: T1, TGF-β2 (Homo sapiens, UniProt P61812); test: Determination of PAI-1 in human dermal papilla cells cultured with TGF-β2; format: cell-based
# T1 construct: host or cells: added to the culture medium of human dermal papilla cells
# T1 sequence (P61812 303-414 limits assumed): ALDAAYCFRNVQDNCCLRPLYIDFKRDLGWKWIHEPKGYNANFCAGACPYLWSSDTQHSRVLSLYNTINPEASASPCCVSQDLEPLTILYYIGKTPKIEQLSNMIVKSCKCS
# Protocol: The inhibition of effect of TGF-β2 can be determined as follows. Utilizing the fact that TGF-β2 induces the production of PAI-1, cells (e.g., dermal papilla cells) are cultured in the coexistence of TGF-β2 and the test substance, PAI-1 in the medium is determined, and to determine whether or not PAI-1 was inhibited as compared to the control.
# The medium in which 10% bovine fetal serum was added to the DMEM medium to which three antibiotics of penicillin, streptomycin and fungizone had been added was used, and human dermal papilla cells were cultured in a 96-well plate (about 7,500 cells per well). First, dose dependency on TGF-β2 of the increased expression of PAI-1 was examined. At a suitable cell density, the medium was changed to ones containing various concentrations of TGF-β2, and was further cultured for 24 hours. Ten μl of the medium was taken out, and quantitated using a commercially available PAI-1 determination kit (TintElize PAI-1: biopool).
# Then, the present inventors investigated, as described below, whether or not TGF-β2 has the effect of inhibiting the enhanced expression of PAI-1. Phyllodulcin was dissolved in DMSO at concentrations of 0.05-50 μg/ml and used. […] At the end of culturing, the survival of cells was also determined by the Alamar Blue method.
# [1] = system: human dermal papilla cells; test: Cell survival by the Alamar Blue method; format: cell-based; conditions: after 24 hours culture; 100% in the case of no addition
# Protocol: Then, the present inventors investigated, as described below, whether or not TGF-β2 has the effect of inhibiting the enhanced expression of PAI-1. Phyllodulcin was dissolved in DMSO at concentrations of 0.05-50 μg/ml and used. After culturing for 24 hours in a medium containing 1 ng/ml TGF-β2, 10 μl of the medium was used to determine the amount of PAI-1. At the end of culturing, the survival of cells was also determined by the Alamar Blue method.
# This was performed as described below. Thus, after washing twice in a fresh medium, the medium was changed to one containing 1/10 amount of Alamar Blue (Alamar Bioscience), and was incubated at 37° C. (5% CO2) for four hours. After incubation, absorbance at 595 nm and 570 nm was measured by a microplate reader in order to calculate the Alamar Blue reduction rate for each well, which was divided by the Alamar Blue reduction rate for the negative control in which no phyllodulcin samples were added, and the survival of the cells were calculated.
# isolated human hair = test: Extension of isolated human hair; format: cell-based; conditions: phyllodulcin added to isolated human hair, vs control
# Protocol: The extension of hair when phyllodulcin was added to the isolated human hair was investigated. The result is as shown in a photograph in FIG. 20.
# precursor caspase-3 = test: Detection of precursor and activated caspase-3 in Pam212 cells cultured with TNF α and CHX; format: cell-based, mouse; conditions: TNF α and CHX added, incubated six hours, antibody detection
# Description: The precursor caspase-3 was detected in almost all cells, whereas activated caspase-3 was not detected.
molecule,measurement,setting,value
COc1ccc([C@H]2Cc3cccc(O)c3C(=O)O2)cc1O [phyllodulcin],hair extension,"human hair follicles; 0.6 μg/ml, eighth day of culturing, vs solvent control",significantly promoted
same,amount of PAI-1,"TGF-β2; 1 ng/ml TGF-β2, 24 hours, 100 in the case of no addition, phyllodulcin 0.05-50 μg/ml",18
same,Alamar Blue reduction rate (%),[1],95%
same,extension of hair,isolated human hair,the hair is extended as compared to the control
"COC(=O)CC(NC(=O)C(C)NC(=O)C(NC(=O)OCc1ccccc1)C(C)C)C(=O)CF (stereo not drawn) [z-VAD-fmk, Carbobenzoxy-valyl-alanyl-β-methyl-aspar-1-yl-fluoromethane] (Cbz-Val-Ala-Asp(OMe)-CH2F; configuration not given here)",Ratio of hair follicles in which the morphology of the hair bulb portions was retained,"human hair follicles; Experiment 2 (day 4), 10 μM, control 12.5%",37.5% (3/8)
same,Ratio of hair follicles in which the morphology of the hair bulb portions was retained,"human hair follicles; Experiment 2 (day 6) as printed, 20 μM, control 20%",60% (6/10)
same,extension of hair,"human hair follicles; z-VAD-fmk 1, 10, 100 μM, vs control DMSO",significantly extended hair
same,activation of the precursor caspase-3,precursor caspase-3,completely inhibit the activation of the precursor caspase-3
TGF-β2: transforming growth factor β2,regression phase-like morphological changes,"human hair follicles; TGF-β2 50 ng/ml, sixth day of culturing, vs non-added control",regression phase-like morphological changes were promoted
same,expression of PAI-1,"TGF-β2; various concentrations of TGF-β2, 24 hours",an increase in PAI-1 in a dose dependent manner
fetuin,extension of hair,"human hair follicles; fetuin 1, 10, 50 μM, vs control bovine serum albumin 50 μM",significantly extended hair
